According to US20200239530A1, “COMPOUNDS AND METHODS OF MODULATING PROTEIN DEGRADATION” (Vividion Therapeutics, Inc., priority 2017, published 2020):

How the values were obtained:
[1] = molecular target: T1, KIAA0664 Clustered mitochondria protein homolog (Homo sapiens, UniProt O75153); assay: Cysteine liganding, probe competition; format: binding
T1 construct: Cells were resuspended in cold PBS on ice and sonicated with a probe sonicator to achieve lysis; endogenous in cells
T1 sequence (O75153 1-1309): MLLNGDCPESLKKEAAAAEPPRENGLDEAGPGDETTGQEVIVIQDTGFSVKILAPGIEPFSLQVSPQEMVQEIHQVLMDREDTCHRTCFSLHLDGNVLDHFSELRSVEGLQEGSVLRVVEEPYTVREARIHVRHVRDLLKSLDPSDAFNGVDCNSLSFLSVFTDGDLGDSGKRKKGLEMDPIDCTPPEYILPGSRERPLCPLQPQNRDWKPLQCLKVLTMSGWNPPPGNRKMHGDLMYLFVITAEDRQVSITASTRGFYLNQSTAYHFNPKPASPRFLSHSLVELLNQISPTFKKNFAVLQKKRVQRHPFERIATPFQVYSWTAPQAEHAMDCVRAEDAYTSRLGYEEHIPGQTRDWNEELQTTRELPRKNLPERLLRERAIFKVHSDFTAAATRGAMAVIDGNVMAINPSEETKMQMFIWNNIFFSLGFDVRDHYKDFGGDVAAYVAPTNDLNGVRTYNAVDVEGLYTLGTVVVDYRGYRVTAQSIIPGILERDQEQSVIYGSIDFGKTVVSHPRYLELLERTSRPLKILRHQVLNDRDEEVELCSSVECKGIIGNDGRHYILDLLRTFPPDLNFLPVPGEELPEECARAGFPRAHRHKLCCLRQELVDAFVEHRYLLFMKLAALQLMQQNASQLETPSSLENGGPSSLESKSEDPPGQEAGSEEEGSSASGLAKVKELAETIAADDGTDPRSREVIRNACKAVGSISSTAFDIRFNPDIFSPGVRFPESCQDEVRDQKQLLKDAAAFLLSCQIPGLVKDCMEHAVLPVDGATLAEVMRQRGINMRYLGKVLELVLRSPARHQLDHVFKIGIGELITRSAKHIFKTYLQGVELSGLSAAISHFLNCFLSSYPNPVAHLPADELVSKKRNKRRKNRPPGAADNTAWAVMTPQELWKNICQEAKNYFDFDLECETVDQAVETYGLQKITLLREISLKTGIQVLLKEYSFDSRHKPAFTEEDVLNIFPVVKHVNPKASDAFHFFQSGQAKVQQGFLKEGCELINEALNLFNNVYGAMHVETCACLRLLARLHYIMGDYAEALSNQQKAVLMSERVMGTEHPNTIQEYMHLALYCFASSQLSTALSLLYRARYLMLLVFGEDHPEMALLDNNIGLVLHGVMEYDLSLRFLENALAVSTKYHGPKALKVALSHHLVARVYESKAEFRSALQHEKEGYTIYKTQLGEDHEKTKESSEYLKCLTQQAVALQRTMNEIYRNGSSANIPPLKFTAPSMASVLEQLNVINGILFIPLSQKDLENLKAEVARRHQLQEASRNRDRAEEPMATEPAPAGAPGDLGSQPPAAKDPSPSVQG
Procedure, shortened: (§1)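 Probe competition in native proteome: 5 mg/ml lysate, compound 1 hr 25° C, then desthiobiotin iodoacetamide (10 mM stock) 1 hr 25° C; acetone ppt, urea/DTT reduction, iodoacetamide alkylation, trypsin, streptavidin pull-down.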

[2] = molecular target: T2, RPS6KA3 Ribosomal protein S6 kinase alpha-3 (Homo sapiens, UniProt P51812); assay: Cysteine liganding, probe competition; format: binding
T2 construct: Cells were resuspended in cold PBS on ice and sonicated with a probe sonicator to achieve lysis; endogenous in cells
Procedure, shortened: as §1

T2 sequence (P51812 whole entry): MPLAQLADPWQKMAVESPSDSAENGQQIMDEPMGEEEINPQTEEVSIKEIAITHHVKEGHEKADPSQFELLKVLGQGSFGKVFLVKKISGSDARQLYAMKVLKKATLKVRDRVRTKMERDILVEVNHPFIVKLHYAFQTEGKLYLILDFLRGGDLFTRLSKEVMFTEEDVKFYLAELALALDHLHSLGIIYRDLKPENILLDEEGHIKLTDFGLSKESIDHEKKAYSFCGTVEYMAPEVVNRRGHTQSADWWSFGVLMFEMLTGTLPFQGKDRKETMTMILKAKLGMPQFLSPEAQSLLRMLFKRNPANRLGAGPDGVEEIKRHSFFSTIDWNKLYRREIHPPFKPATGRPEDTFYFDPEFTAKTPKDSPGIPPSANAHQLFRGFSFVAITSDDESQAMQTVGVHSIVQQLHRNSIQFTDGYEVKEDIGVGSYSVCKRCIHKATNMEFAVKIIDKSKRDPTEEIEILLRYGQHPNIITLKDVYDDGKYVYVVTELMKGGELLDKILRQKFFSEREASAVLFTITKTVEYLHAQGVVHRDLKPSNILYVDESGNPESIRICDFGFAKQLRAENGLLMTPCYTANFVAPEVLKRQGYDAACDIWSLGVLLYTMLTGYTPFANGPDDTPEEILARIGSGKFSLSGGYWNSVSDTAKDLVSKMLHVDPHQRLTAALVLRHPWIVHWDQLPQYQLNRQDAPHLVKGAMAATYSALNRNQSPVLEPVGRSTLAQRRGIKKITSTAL

| SMILES | Liganded ([1]; KIAA0664 Res# 333, uniprot O75153) | Liganded ([2]; RPS6KA3 Res# 229, uniprot P51812) | 100 Max ([1]; uniprot O75153) | 100 ave ([1]; uniprot O75153) | 500 ave ([1]; uniprot O75153) | 500 Max ([1]; uniprot O75153, in % (unit assumed)) | 100 Max ([2]; uniprot P51812) | 100 ave ([2]; uniprot P51812) | 500 ave ([2]; uniprot P51812) | 500 Max ([2]; uniprot P51812, in % (unit assumed)) |
| --- | --- | --- | --- | --- | --- | --- | --- | --- | --- | --- |
| COc1ccc2c(c1)CCCN2C(=O)CCl [KB02] | YES | YES | – | – | – | – | – | – | – | – |
| O=C(CCl)Nc1cc(C(F)(F)F)cc(C(F)(F)F)c1 [KBO3] | – | – | 23.11 | 9.323 | 51.405 | 73.65 | 1.03 | −4.767 | 30.61 | 30.61 |
